Results published in US20230192676A1, “Heterocyclic Amides as Kinase Inhibitors” (GLAXOSMITHKLINE INTELLECTUAL PROPERTY DEVELOPMENT LIMITED, priority 2017, published 2023).

These molecules were tested on U937 cells (assay: necroptosis assay in human monocytic leukemia U937 cells (Cell Titer-Glo ATP viability readout)). Conditions: U-937, viability by cellular ATP (Cell Titer-Glo), values approximate, read-out: pIC50, inhibition of necrosis in U937 cells (converted).
Type: cell-based
Procedure: The efficacy of RIP1 inhibitors can be tested in […] in vitro using a human monocytic leukemia U937 in a necroptosis assay. As determined using the method described in S. He et al., Cell, 137(6):1100-1111 (2009) and International Patent Appln. No. PCT/IB2014/059004, now, International Patent Appln. Pub.
Viability was measured by quantitating cellular levels of ATP using the Cell Titer-Glo kit. All data are means±standard deviation of the mean.
`CNC(=O)c1cc(N2CCC(C(=O)N3OCC[C@H]3c3cc(F)cc(F)c3)CC2)ncn1` [Example 9, (S)-6-(4-(3-(3,5-difluorophenyl)isoxazolidine-2-carbonyl)piperidin-1-yl)-N-methylpyrimidine-4-carboxamide] was tested, and the IC50 was 0.001 to 0.1 µM. For `CNC(=O)c1cc(N2CC[C@H](C(=O)N3OCC[C@@H]3c3cc(F)cc(F)c3)[C@H](F)C2)ncn1` [Example 30, 6-((3S,4R)-4-((R)-3-(3,5-difluorophenyl)isoxazolidine-2-carbonyl)-3-fluoropiperidin-1-yl)-N-methylpyrimidine-4-carboxamide], the IC50 was 0.001 to 0.1 µM. `O=C([C@H]1CCN(c2nnco2)C[C@H]1F)N1OCC[C@@H]1c1cc(F)cc(F)c1` [Example 22, ((R)-3-(3,5-difluorophenyl)isoxazolidin-2-yl)((3S,4R)-3-fluoro-1-(1,3,4-oxadiazol-2-yl)piperidin-4-yl)methanone] gave an IC50 of 0.001 to 0.1 µM. With `CN(C)C(=O)c1cc(N2CC[C@H](C(=O)N3OCC[C@@H]3c3cc(F)cc(F)c3)[C@H](F)C2)ncn1` [Example 34, 6-((3S,4R)-4-((R)-3-(3,5-difluorophenyl)isoxazolidine-2-carbonyl)-3-fluoropiperidin-1-yl)-N,N-dimethylpyrimidine-4-carboxamide] the IC50 was 0.001 to 0.1 µM. Molecule `CN(C)C(=O)c1cc(N2CC[C@H](C(=O)N3OCC[C@H]3c3cc(F)cc(F)c3)[C@H](F)C2)ncn1` [Example 35, 6-((3S,4R)-4-((S)-3-(3,5-difluorophenyl)isoxazolidine-2-carbonyl)-3-fluoropiperidin-1-yl)-N,N-dimethylpyrimidine-4-carboxamide] has an IC50 of 0.001 to 0.1 µM. Molecule `C[S@+]([O-])c1cc(N2CC[C@@H](C(=O)N3OCC[C@@H]3c3cc(F)cc(F)c3)[C@@H](F)C2)ncn1` [Example 46, ((R)-3-(3,5-difluorophenyl)isoxazolidin-2-yl)((3R,4S)-3-fluoro-1-(6-((S)-methylsulfinyl)pyrimidin-4-yl)piperidin-4-yl)methanone] has an IC50 of 0.001 to 0.1 µM. `CC(=O)N1CCC(C(=O)N2OCC[C@H]2c2cc(F)cc(F)c2)CC1` [Example 2, (S)-1-(4-(3-(3,5-difluorophenyl)isoxazolidine-2-carbonyl)piperidin-1-yl)ethan-1-one] showed an IC50 of 0.001 to 0.1 µM. `CN(C)C(=O)c1cc(N2CCC(C(=O)N3OCC[C@H]3c3cc(F)cc(F)c3)CC2)ncn1` [Example 10, (S)-6-(4-(3-(3,5-difluorophenyl)isoxazolidine-2-carbonyl)piperidin-1-yl)-N,N-dimethylpyrimidine-4-carboxamide] showed an IC50 of 0.001 to 0.1 µM. `Cc1nnc(N2CC[C@@H](C(=O)N3OCC[C@@H]3c3cc(F)cc(F)c3)[C@@H](F)C2)o1` [Example 18, ((R)-3-(3,5-difluorophenyl)isoxazolidin-2-yl)((3R,4S)-3-fluoro-1-(5-methyl-1,3,4-oxadiazol-2-yl)piperidin-4-yl)methanone] was tested, and the IC50 was 0.001 to 0.1 µM. Work on `C[S@@+]([O-])c1cc(N2CC[C@H](C(=O)N3OCC[C@@H]3c3cc(F)cc(F)c3)[C@H](F)C2)ncn1` [Example 44, ((R)-3-(3,5-difluorophenyl)isoxazolidin-2-yl)((3S,4R)-3-fluoro-1-(6-((R)-methylsulfinyl)pyrimidin-4-yl)piperidin-4-yl)methanone] yielded an IC50 of 0.001 to 0.1 µM. `NC(=O)c1cc(N2CC[C@H](C(=O)N3OCC[C@@H]3c3cc(F)cc(F)c3)[C@H](F)C2)ncn1` [Example 26, 6-((3S,4R)-4-((R)-3-(3,5-difluorophenyl)isoxazolidine-2-carbonyl)-3-fluoropiperidin-1-yl)pyrimidine-4-carboxamide] showed an IC50 of 0.001 to 0.1 µM. Work on `NC(=O)c1cc(N2CCC(C(=O)N3OCC[C@H]3c3cc(F)cc(F)c3)CC2)ncn1` [Example 4, (S)-6-(4-(3-(3,5-difluorophenyl)isoxazolidine-2-carbonyl)piperidin-1-yl)pyrimidine-4-carboxamide] yielded an IC50 of 0.001 to 0.1 µM. In the case of `Cc1nnc(N2CC[C@H](C(=O)N3OCC[C@@H]3c3cc(F)cc(F)c3)[C@H](F)C2)o1` [Example 16, ((R)-3-(3,5-difluorophenyl)isoxazolidin-2-yl)((3S,4R)-3-fluoro-1-(5-methyl-1,3,4-oxadiazol-2-yl)piperidin-4-yl)methanone], the IC50 is reported as 0.001 to 0.1 µM. With `N#Cc1cc(N2CCC(C(=O)N3OCC[C@H]3c3cc(F)cc(F)c3)CC2)ncn1` [Example 8, (S)-6-(4-(3-(3,5-difluorophenyl)isoxazolidine-2-carbonyl)piperidin-1-yl)pyrimidine-4-carbonitrile] the IC50 was 0.001 to 0.1 µM. Work on `CNC(=O)c1cc(N2CC[C@@H](C(=O)N3OCC[C@@H]3c3cc(F)cc(F)c3)[C@@H](F)C2)ncn1` [Example 32, 6-((3R,4S)-4-((R)-3-(3,5-difluorophenyl)isoxazolidine-2-carbonyl)-3-fluoropiperidin-1-yl)-N-methylpyrimidine-4-carboxamide] yielded an IC50 of 0.001 to 0.1 µM. `Cc1nnc(N2CCC(C(=O)N3OCC[C@H]3c3cc(F)cc(F)c3)CC2)o1` [Example 5, (S)-(3-(3,5-difluorophenyl)isoxazolidin-2-yl)(1-(5-methyl-1,3,4-oxadiazol-2-yl)piperidin-4-yl)methanone] showed an IC50 of 0.001 to 0.1 µM.
